Measurements taken from paper PMC9574050, “Design, synthesis, and insecticidal activity of a novel series of flupyrimin analogs bearing 1-aryl-1H-pyrazol-4-yl subunits” (Frontiers in Chemistry, 2022).
Read-outs that look alike come from different tables or passages of the source.

Assays:
Assay type in all cases: in vivo
[1] = test system: Aphis craccivora; test: Insecticidal activity against Aphis craccivora (Potter spray tower); conditions: read-out: Mortality rate (%) A. craccivora
Protocol: (§1) Preparation of test agent. Dissolve accurately weighed tested compound in DMF to prepare 1% mother liquor, and then dilute it with distilled water containing 0.1% Tween-80 to corresponding concentrations for later use.
Insecticidal activity against Aphis craccivora ([Liu et al., 2022]). About 30 nymphs of alfalfa aphid were placed on a horsebean leaf dish, and then 2.5 ml of the tested agent was sprayed with Potter spray tower. After treatment, they were cultured in an observation room at 20–22°C. The result was counted 24 h later, and the no-response insect body when it was lightly touched with tweezers was regarded as dead. Each treatment was repeated three times, and DMF without the tested compound was used as a blank control.
(§2) The insecticidal activities of the test compounds against the abovementioned five insects were calculated by the following formula: P1=(K/N)×100, (1) P2=(Pt−P0)/(1−P0)×100, (2) where P1 is the mortality rate; K is the dead insect number; N is the total number of experimental insects; P2 is the corrected mortality rate; Pt is the mortality rate of treatment; P0 is the mortality rate of CK. If the mortality rate of CK is less than 5%, without the required correction, and if the mortality rate of CK is between 5 and 20%, P2 should be calculated according to formula II.

[2] = test system: Nilaparvata lugens; test: Insecticidal activity against Nilaparvata lugens (Potter spray tower); conditions: 24 h, read-out: Mortality rate (%) N. lugens
Source text: as §1
Insecticidal activity against Nilaparvata lugens ([Ghareeb et al., 2021]). The seedlings with two leaves and one heart were placed in a Petri dish with a bottom diameter of 3 cm and covered with white sand. After the 3rd instar nymphae of N. lugens were stunned by CO2, about 15 nymphae were received in each dish, and then 2.5 ml of the tested agent was sprayed with Potter spray tower. The mortality of N. lugens was investigated 1 day after the treatment. Each treatment was repeated three times, and DMF without the tested compound was used as a blank control.
as §2

[3] = test system: Plutella xylostella; test: Insecticidal activity against Plutella xylostella (soaking method); conditions: Plutella xylostella, 48 h, read-out: Mortality rate (%) P. xylostella
Source text: as §1
Insecticidal activity against Plutella xylostella ([Yang et al., 2021]). The soaking method was adopted. After soaking a proper amount of radish leaves for 10 s, it was placed in a plastic Petri dish with filter paper and dried naturally in the shade. Each dish was inoculated with 10 2nd instar P. xylostella larvae and placed in an observation room at 22°C with light (16/8 h). The result was counted 2 days later, and the no-response insect body when it was lightly touched with a brush was regarded as dead. Each treatment was repeated three times, and DMF without the tested compound was used as a blank control.
as §2

[4] = test system: Chilo suppressalis; test: Insecticidal activity against Chilo suppressalis (soaking method); conditions: 96 h, read-out: Mortality rate (%) C. suppressalis
Source text: as §1
Insecticidal activity against Chilo suppressalis ([Huang et al., 2022]). The soaking method was adopted. The Zizania latifolia slices were soaked in a tested solution for 10 s, then taken out, and placed in a plastic Petri dish with filter paper to naturally dry in the shade. […] The result was counted 4 days later, and the no-response insect body when it was lightly touched with a brush was regarded as dead. Each treatment was repeated three times, and DMF without the tested compound was used as a blank control.
as §2

[5] = test system: Helicoverpa armigera; test: Insecticidal activity against Helicoverpa armigera (soaking method); conditions: Helicoverpa armigera, 48 h, read-out: Mortality rate (%) H. armigera
Source text: as §1
Insecticidal activity against Helicoverpa armigera. The soaking method was adopted ([Yang et al., 2022]). After soaking a proper amount of corn leaves for 10 s, they were placed in a plastic Petri dish with filter paper and dried naturally in the shade. Ten larvae of the 2nd instar H. armigera were attached to each dish and placed in an observation room at 26°C with light (16/8 h). The result was counted 2 days later, and the no-response insect body when it was lightly touched with a brush was regarded as dead. Each treatment was repeated 3 times, and DMF without the tested compound was used as a blank control.
as §2

[6] = 400 μg/mL, 3rd instar nymphae, 1 day after treatment
[7] = 25 μg/mL, 2nd instar larvae, counted 2 days later
[8] = 100 μg/mL, 2nd instar larvae, counted 2 days later
[9] = 400 μg/mL, 2nd instar larvae, counted 2 days later
[10] = 400 μg/mL, 3rd instar larvae, counted 4 days later

O=C(/N=c1\ccccn1Cc1cnn(-c2cccc(F)c2)c1C(F)(F)F)C(F)(F)F [Compound A3, (E)-2,2,2-trifluoro-N-(1-((1-(3-fluorophenyl)-5-(trifluoromethyl)-1H-pyrazol-4-yl)methyl)pyridin-2(1H)-ylidene)acetamide]
mortality at 400 µg/mL ([1]; 400 μg/mL, counted 24 h later): 0% | mortality at 400 µg/mL [2, 6]: 0% | mortality at 25 µg/mL [3, 7]: 0% | mortality at 100 µg/mL [3, 8]: 86.7% | mortality at 400 µg/mL [3, 9]: 100% | mortality at 400 µg/mL [4, 10]: 0% | mortality at 400 µg/mL [5, 9]: 0%

O=C(/N=c1\ccccn1Cc1cnn(-c2ccc(Cl)cc2)c1C(F)(F)F)C(F)(F)F [Compound A4, (E)-N-(1-((1-(4-chlorophenyl)-5-(trifluoromethyl)-1H-pyrazol-4-yl)methyl)pyridin-2(1H)-ylidene)-2,2,2-trifluoroacetamide]
mortality at 400 µg/mL ([1]; 400 μg/mL, counted 24 h later): 0% | mortality at 400 µg/mL [2, 6]: 0% | mortality at 400 µg/mL [3, 9]: 0% | mortality at 400 µg/mL [4, 10]: 0% | mortality at 400 µg/mL [5, 9]: 0%

O=C(/N=c1\ccccn1Cc1cnn(-c2cccc(F)c2)c1C(F)F)C(F)(F)F [Compound A7, (E)-N-(1-((5-(difluoromethyl)-1-(3-fluorophenyl)-1H-pyrazol-4-yl)methyl)pyridin-2(1H)-ylidene)-2,2,2-trifluoroacetamide]
mortality at 400 µg/mL ([1]; 400 μg/mL, counted 24 h later): 0% | mortality at 400 µg/mL [2, 6]: 0% | mortality at 400 µg/mL [3, 9]: 63.3% | mortality at 400 µg/mL [4, 10]: 0% | mortality at 400 µg/mL [5, 9]: 0%

COCC(=O)/N=c1\ccccn1Cc1cnn(-c2cccc(F)c2)c1C(F)(F)F [Compound B3, (E)-N-(1-((1-(3-fluorophenyl)-5-(trifluoromethyl)-1H-pyrazol-4-yl)methyl)pyridin-2(1H)-ylidene)-2-methoxyacetamide]
mortality at 400 µg/mL ([1]; 400 μg/mL, counted 24 h later): 0% | mortality at 400 µg/mL [2, 6]: 0% | mortality at 25 µg/mL [3, 7]: > 70% | mortality at 100 µg/mL [3, 8]: 100% | mortality at 400 µg/mL [3, 9]: 100% | mortality at 400 µg/mL [4, 10]: 0% | mortality at 400 µg/mL [5, 9]: 0%

CNC(=O)c1cc(Cl)cc(C)c1NC(=O)c1cc(Br)nn1-c1ncccc1Cl [CAT, chlorantraniliprole, reference compound]
mortality at 400 µg/mL ([1]; 24 h): 0% | mortality at 400 µg/mL [2]: 0% | mortality at 25 µg/mL [3]: 100% | mortality at 100 µg/mL [3]: 100% | mortality at 400 µg/mL [3]: 100% | mortality at 100 µg/mL [4]: 100% | mortality at 400 µg/mL [4]: 100% | mortality at 400 µg/mL [5]: 100%

O=C(/N=c1\ccccn1Cc1cnn(-c2ccccc2)c1C(F)(F)F)C(F)(F)C(F)(F)F [Compound C1, (E)-2,2,3,3,3-pentafluoro-N-(1-((1-phenyl-5-(trifluoromethyl)-1H-pyrazol-4-yl)methyl)pyridin-2(1H)-ylidene)propanamide]
mortality at 400 µg/mL ([1]; 400 μg/mL, counted 24 h later): 0% | mortality at 400 µg/mL [2, 6]: 0% | mortality at 400 µg/mL [3, 9]: 0% | mortality at 400 µg/mL [4, 10]: 0% | mortality at 400 µg/mL [5, 9]: 0%

O=C(/N=c1\ccccn1Cc1cnn(-c2cccc(F)c2)c1C(F)(F)F)C(F)(F)C(F)(F)F [Compound C3, (E)-2,2,3,3,3-pentafluoro-N-(1-((1-(3-fluorophenyl)-5-(trifluoromethyl)-1H-pyrazol-4-yl)methyl)pyridin-2(1H)-ylidene)propanamide]
mortality at 400 µg/mL ([1]; 400 μg/mL, counted 24 h later): 0% | mortality at 400 µg/mL [2, 6]: 0% | mortality at 400 µg/mL [3, 9]: 76.7% | mortality at 400 µg/mL [4, 10]: 0% | mortality at 400 µg/mL [5, 9]: 0%

COCC(=O)/N=c1\ccccn1Cc1cnn(-c2ccccc2)c1C(F)(F)F [Compound B1, (E)-2-methoxy-N-(1-((1-phenyl-5-(trifluoromethyl)-1H-pyrazol-4-yl)methyl)pyridin-2(1H)-ylidene)acetamide]
mortality at 400 µg/mL ([1]; 400 μg/mL, counted 24 h later): 0% | mortality at 400 µg/mL [2, 6]: 48.9% | mortality at 25 µg/mL [3, 7]: 16.7% | mortality at 100 µg/mL [3, 8]: 100% | mortality at 400 µg/mL [3, 9]: 100% | mortality at 400 µg/mL [4, 10]: 0% | mortality at 400 µg/mL [5, 9]: 0%

O=C(/N=c1\ccccn1Cc1cnn(-c2cccc(Cl)c2)c1C(F)F)C(F)(F)C(F)(F)F [Compound C6, (E)-N-(1-((1-(3-chlorophenyl)-5-(difluoromethyl)-1H-pyrazol-4-yl)methyl)pyridin-2(1H)-ylidene)-2,2,3,3,3-pentafluoropropanamide]
mortality at 400 µg/mL ([1]; 400 μg/mL, counted 24 h later): 0% | mortality at 400 µg/mL [2, 6]: 0% | mortality at 400 µg/mL [3, 9]: 60% | mortality at 400 µg/mL [4, 10]: 0% | mortality at 400 µg/mL [5, 9]: 0%

O=C(/N=c1\ccccn1Cc1cnn(-c2cccc(Cl)c2)c1C(F)F)C(F)(F)F [Compound A6, (E)-N-(1-((1-(3-chlorophenyl)-5-(difluoromethyl)-1H-pyrazol-4-yl)methyl)pyridin-2(1H)-ylidene)-2,2,2-trifluoroacetamide]
mortality at 400 µg/mL ([1]; 400 μg/mL, counted 24 h later): 0% | mortality at 100 µg/mL ([2]; 100 μg/mL, 3rd instar nymphae, 1 day after treatment): 0% | mortality at 400 µg/mL [2, 6]: 100% | mortality at 400 µg/mL [3, 9]: 50% | mortality at 400 µg/mL [4, 10]: 0% | mortality at 400 µg/mL [5, 9]: 0%

O=C(/N=c1\ccccn1Cc1cnn(-c2ccccc2Cl)c1C(F)(F)F)C(F)(F)C(F)(F)F [Compound C2, (E)-N-(1-((1-(2-chlorophenyl)-5-(trifluoromethyl)-1H-pyrazol-4-yl)methyl)pyridin-2(1H)-ylidene)-2,2,3,3,3-pentafluoropropanamide]
mortality at 400 µg/mL ([1]; 400 μg/mL, counted 24 h later): 0% | mortality at 400 µg/mL [2, 6]: 0% | mortality at 400 µg/mL [3, 9]: 0% | mortality at 400 µg/mL [4, 10]: 0% | mortality at 400 µg/mL [5, 9]: 0%

O=C(/N=c1\ccccn1Cc1cnn(-c2ccc(F)cc2)c1C(F)F)C(F)(F)F [Compound A8, (E)-N-(1-((5-(difluoromethyl)-1-(4-fluorophenyl)-1H-pyrazol-4-yl)methyl)pyridin-2(1H)-ylidene)-2,2,2-trifluoroacetamide]
mortality at 400 µg/mL ([1]; 400 μg/mL, counted 24 h later): 0% | mortality at 400 µg/mL [2, 6]: 0% | mortality at 400 µg/mL [3, 9]: 0% | mortality at 400 µg/mL [4, 10]: 0% | mortality at 400 µg/mL [5, 9]: 0%

O=C(/N=c1\ccccn1Cc1cnn(-c2ccc(F)cc2)c1C(F)F)C(F)(F)C(F)(F)F [Compound C8, (E)-N-(1-((5-(difluoromethyl)-1-(4-fluorophenyl)-1H-pyrazol-4-yl)methyl)pyridin-2(1H)-ylidene)-2,2,3,3,3-pentafluoropropanamide]
mortality at 400 µg/mL ([1]; 400 μg/mL, counted 24 h later): 0% | mortality at 400 µg/mL [2, 6]: 0% | mortality at 400 µg/mL [4, 10]: 0% | mortality at 400 µg/mL [5, 9]: 0%

O=C(/N=c1\ccccn1Cc1cnn(-c2ccc(C(F)(F)F)cc2)c1C(F)(F)F)C(F)(F)C(F)(F)F [Compound C5, (E)-2,2,3,3,3-pentafluoro-N-(1-((5-(trifluoromethyl)-1-(4-(trifluoromethyl)phenyl)-1H-pyrazol-4-yl)methyl)pyridin-2(1H)-ylidene)propanamide]
mortality at 400 µg/mL ([1]; 400 μg/mL, counted 24 h later): 0% | mortality at 400 µg/mL [3, 9]: 70% | mortality at 100 µg/mL ([4]; 100 μg/mL, 3rd instar larvae, counted 4 days later): 0% | mortality at 400 µg/mL [4, 10]: 100% | mortality at 400 µg/mL [5, 9]: 0%
